Experimental data from ChEMBL document CHEMBL4118098, “Discovery of DS28120313 as a potent orally active hepcidin production inhibitor: Design and optimization of novel 4,6-disubstituted indazole derivatives” (Bioorg Med Chem Lett, 2017).
One block for each compound: values may come before it.

What was measured:
[1] = tested on: Proto-oncogene tyrosine-protein kinase receptor Ret (Homo sapiens), P07949 [Y791F]; experiment: Inhibition of RET Y791F mutant (unknown origin) at 0.19 uM relative to control
[2] = molecular target: Serine/threonine-protein kinase 4 (Homo sapiens) (UniProt Q13043); experiment: Inhibition of MST1 (unknown origin) at 0.19 uM relative to control
[3] = molecular target: Rho-associated protein kinase 1 (Homo sapiens) (UniProt Q13464); experiment: Inhibition of ROCK1 (unknown origin) at 0.19 uM relative to control
[4] = tested on: Fibroblast growth factor receptor 2 (Homo sapiens), P21802 [N549H]; experiment: Inhibition of FGFR2 N549H mutant (unknown origin) at 0.19 uM relative to control
[5] = tested on: Platelet-derived growth factor receptor alpha (Homo sapiens), P16234 [V561D]; experiment: Inhibition of PDGFRA V561D mutant (unknown origin) at 0.19 uM relative to control
[6] = molecular target: Protein kinase C zeta type (Homo sapiens) (UniProt Q05513); experiment: Inhibition of PKC-zeta (unknown origin) at 0.19 uM relative to control
[7] = molecular target: MAP kinase-interacting serine/threonine-protein kinase 1 (Homo sapiens) (UniProt Q9BUB5); experiment: Inhibition of MNK1 (unknown origin) at 0.19 uM relative to control
[8] = molecular target: PAS domain-containing serine/threonine-protein kinase (Homo sapiens) (UniProt Q96RG2); experiment: Inhibition of PASK (unknown origin) at 0.19 uM relative to control
[9] = molecular target: Ribosomal protein S6 kinase alpha-1 (Homo sapiens) (UniProt Q15418); experiment: Inhibition of RSK1 (unknown origin) at 0.19 uM relative to control
[10] = molecular target: Ribosomal protein S6 kinase alpha-3 (Homo sapiens) (UniProt P51812); experiment: Inhibition of RSK2 (unknown origin) at 0.19 uM relative to control
[11] = molecular target: Serine/threonine-protein kinase Sgk3 (Homo sapiens) (UniProt Q96BR1); experiment: Inhibition of SGK3 (unknown origin) at 0.164 uM relative to control
[12] = molecular target: Calcium/calmodulin-dependent protein kinase type 1D (Homo sapiens) (UniProt Q8IU85); experiment: Inhibition of CamK1d (unknown origin) at 0.164 uM relative to control
[13] = molecular target: Proto-oncogene tyrosine-protein kinase Src (Homo sapiens) (UniProt P12931); experiment: Inhibition of SRC (unknown origin) at 0.164 uM relative to control
[14] = molecular target: Casein kinase I isoform epsilon (Homo sapiens) (UniProt P49674); experiment: Inhibition of CK1-epsilon (unknown origin) at 0.164 uM relative to control
[15] = molecular target: Tyrosine-protein kinase Tec (Homo sapiens) (UniProt P42680); experiment: Inhibition of TEC (unknown origin) at 0.164 uM relative to control
[16] = Tmax in C57BL/6J mouse at 30 mg/kg, po by LC-MS/MS analysis; format: ADME, organism-based; conditions: in vivo
[17] = molecular target: T1, MAP kinase-activated protein kinase 5 (Homo sapiens) (UniProt Q8IW41); experiment: Inhibition of PRAK (unknown origin) at 0.164 uM relative to control
T1 sequence (whole entry): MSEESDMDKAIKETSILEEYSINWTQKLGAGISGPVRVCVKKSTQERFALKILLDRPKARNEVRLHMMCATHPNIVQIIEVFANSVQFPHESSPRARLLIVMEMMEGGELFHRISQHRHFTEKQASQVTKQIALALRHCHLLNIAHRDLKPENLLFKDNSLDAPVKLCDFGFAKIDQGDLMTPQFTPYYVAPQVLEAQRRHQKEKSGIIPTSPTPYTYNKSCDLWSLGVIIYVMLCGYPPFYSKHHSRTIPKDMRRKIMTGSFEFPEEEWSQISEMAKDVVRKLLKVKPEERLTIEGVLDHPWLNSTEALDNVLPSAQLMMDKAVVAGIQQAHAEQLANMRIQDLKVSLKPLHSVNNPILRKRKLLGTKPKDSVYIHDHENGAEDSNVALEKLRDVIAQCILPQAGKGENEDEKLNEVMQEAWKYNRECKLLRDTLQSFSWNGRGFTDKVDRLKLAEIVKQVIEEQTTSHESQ

[18] = molecular target: Interleukin-1 receptor-associated kinase 1 (Homo sapiens) (UniProt P51617); experiment: Inhibition of IRAK1 (unknown origin) at 0.164 uM relative to control
[19] = molecular target: Rho-associated protein kinase 1 (Homo sapiens) (UniProt Q13464); experiment: Inhibition of ROCK1 (unknown origin) at 0.164 uM relative to control
[20] = molecular target: Tyrosine-protein kinase JAK3 (Homo sapiens) (UniProt P52333); experiment: Inhibition of JAK3 (unknown origin) at 0.164 uM relative to control
[21] = molecular target: Mitogen-activated protein kinase kinase kinase kinase 5 (Homo sapiens) (UniProt Q9Y4K4); experiment: Inhibition of KHS1 (unknown origin) at 0.164 uM relative to control
[22] = molecular target: Ephrin type-A receptor 2 (Homo sapiens) (UniProt P29317); experiment: Inhibition of EPHA2 (unknown origin) at 0.164 uM relative to control
[23] = tested on: Tyrosine-protein kinase ABL1 (Homo sapiens), P00519 [Q252H]; experiment: Inhibition of Abl Q252H mutant (unknown origin) at 0.164 uM relative to control
[24] = molecular target: Mitogen-activated protein kinase 11 (Homo sapiens) (UniProt Q15759); experiment: Inhibition of p38-beta2 (unknown origin) at 0.164 uM relative to control
[25] = molecular target: T2, Testis-specific serine/threonine-protein kinase 2 (Homo sapiens) (UniProt Q96PF2); experiment: Inhibition of TSSK2 (unknown origin) at 0.164 uM relative to control
T2 sequence (whole entry): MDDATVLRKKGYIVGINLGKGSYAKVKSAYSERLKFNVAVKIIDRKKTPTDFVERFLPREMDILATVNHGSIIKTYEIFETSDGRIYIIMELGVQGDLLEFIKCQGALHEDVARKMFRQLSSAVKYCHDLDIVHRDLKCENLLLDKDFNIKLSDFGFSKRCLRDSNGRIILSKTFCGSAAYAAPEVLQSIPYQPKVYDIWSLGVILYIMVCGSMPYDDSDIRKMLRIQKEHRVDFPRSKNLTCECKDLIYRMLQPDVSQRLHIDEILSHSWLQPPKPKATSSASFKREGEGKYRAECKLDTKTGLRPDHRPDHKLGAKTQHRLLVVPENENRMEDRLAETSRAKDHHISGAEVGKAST

[26] = molecular target: Protein-tyrosine kinase 2-beta (Homo sapiens) (UniProt Q14289); experiment: Inhibition of PYK2 (unknown origin) at 0.164 uM relative to control
[27] = molecular target: Proto-oncogene tyrosine-protein kinase receptor Ret (Homo sapiens) (UniProt P07949); experiment: Inhibition of RET (unknown origin) at 0.164 uM relative to control
[28] = Metabolic stability in pooled CD1 mouse liver microsomes assessed as parent compound remaining at 1 uM after 30 mins by LC-MS/MS analysis; format: ADME, microsome; conditions: read-out: Stability
[29] = molecular target: Serine/threonine-protein kinase 24 (Homo sapiens) (UniProt Q9Y6E0); experiment: Inhibition of MST3 (unknown origin) at 0.164 uM relative to control

Rho-associated protein kinase 1 (Homo sapiens), sequence (Q13464 2-1354 limits assumed): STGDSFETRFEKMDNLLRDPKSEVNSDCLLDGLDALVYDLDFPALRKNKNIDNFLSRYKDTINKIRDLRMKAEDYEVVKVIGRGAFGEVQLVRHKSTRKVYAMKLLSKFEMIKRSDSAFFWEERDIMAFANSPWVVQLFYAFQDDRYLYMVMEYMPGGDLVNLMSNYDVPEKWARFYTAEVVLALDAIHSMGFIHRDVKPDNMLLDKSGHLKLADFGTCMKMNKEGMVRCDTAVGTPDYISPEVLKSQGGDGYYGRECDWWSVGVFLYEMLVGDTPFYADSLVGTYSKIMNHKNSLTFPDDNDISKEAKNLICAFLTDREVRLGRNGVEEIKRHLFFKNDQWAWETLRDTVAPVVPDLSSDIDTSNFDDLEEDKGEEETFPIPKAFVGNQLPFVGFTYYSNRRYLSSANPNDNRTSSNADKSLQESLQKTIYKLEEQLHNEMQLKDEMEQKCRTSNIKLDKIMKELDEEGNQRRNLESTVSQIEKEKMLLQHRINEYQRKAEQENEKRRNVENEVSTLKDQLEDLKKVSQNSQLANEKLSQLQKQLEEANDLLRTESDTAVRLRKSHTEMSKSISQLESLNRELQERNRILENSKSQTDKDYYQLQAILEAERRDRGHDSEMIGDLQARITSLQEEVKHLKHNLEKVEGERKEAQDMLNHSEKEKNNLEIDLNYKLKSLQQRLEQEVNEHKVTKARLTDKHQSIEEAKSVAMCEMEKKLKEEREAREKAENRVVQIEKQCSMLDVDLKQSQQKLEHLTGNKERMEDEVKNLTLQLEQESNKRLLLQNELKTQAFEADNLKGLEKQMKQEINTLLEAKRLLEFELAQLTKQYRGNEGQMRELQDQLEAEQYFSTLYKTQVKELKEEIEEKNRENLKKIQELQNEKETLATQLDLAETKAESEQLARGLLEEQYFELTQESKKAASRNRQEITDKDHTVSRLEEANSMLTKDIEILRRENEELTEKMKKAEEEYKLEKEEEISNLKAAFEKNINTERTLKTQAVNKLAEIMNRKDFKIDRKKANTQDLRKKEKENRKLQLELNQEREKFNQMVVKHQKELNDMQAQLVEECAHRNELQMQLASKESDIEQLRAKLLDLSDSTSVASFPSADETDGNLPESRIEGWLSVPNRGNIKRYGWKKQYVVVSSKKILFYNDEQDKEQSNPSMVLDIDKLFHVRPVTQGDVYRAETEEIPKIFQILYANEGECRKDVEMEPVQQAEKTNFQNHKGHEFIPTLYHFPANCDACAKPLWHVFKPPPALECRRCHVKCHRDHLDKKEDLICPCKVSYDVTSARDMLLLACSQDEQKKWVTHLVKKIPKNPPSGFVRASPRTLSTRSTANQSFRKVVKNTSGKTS
Ribosomal protein S6 kinase alpha-1 (Homo sapiens), sequence (Q15418 whole entry): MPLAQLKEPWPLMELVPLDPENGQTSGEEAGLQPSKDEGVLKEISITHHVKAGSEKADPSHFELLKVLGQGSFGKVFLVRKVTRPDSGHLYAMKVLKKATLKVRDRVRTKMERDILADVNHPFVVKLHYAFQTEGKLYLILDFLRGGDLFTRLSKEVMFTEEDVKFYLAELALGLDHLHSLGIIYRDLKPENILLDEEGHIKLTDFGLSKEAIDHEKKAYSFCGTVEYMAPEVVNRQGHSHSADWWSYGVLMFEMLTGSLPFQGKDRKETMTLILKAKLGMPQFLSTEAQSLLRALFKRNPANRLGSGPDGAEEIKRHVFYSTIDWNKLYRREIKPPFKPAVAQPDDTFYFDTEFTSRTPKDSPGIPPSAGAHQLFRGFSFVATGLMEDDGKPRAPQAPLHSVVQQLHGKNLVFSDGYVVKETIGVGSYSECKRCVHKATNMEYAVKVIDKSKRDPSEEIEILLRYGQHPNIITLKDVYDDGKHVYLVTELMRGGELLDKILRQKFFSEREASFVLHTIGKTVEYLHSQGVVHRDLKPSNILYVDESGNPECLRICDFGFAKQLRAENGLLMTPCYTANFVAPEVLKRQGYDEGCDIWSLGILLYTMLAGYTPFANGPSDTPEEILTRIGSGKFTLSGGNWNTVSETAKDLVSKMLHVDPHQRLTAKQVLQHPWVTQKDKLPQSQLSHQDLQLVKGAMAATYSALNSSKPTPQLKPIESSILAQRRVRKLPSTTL
Calcium/calmodulin-dependent protein kinase type 1D (Homo sapiens), sequence (Q8IU85 whole entry, looked up): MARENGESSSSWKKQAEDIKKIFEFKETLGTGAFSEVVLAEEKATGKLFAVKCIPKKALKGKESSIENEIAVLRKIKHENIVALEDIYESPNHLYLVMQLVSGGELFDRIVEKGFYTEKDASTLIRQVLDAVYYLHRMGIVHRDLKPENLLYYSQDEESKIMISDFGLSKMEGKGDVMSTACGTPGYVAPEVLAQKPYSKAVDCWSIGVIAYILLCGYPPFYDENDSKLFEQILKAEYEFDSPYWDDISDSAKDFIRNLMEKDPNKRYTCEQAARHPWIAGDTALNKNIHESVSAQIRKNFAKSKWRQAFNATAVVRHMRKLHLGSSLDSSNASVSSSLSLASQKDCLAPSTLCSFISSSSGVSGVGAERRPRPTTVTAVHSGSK
Proto-oncogene tyrosine-protein kinase receptor Ret (Homo sapiens), sequence (P07949 whole entry): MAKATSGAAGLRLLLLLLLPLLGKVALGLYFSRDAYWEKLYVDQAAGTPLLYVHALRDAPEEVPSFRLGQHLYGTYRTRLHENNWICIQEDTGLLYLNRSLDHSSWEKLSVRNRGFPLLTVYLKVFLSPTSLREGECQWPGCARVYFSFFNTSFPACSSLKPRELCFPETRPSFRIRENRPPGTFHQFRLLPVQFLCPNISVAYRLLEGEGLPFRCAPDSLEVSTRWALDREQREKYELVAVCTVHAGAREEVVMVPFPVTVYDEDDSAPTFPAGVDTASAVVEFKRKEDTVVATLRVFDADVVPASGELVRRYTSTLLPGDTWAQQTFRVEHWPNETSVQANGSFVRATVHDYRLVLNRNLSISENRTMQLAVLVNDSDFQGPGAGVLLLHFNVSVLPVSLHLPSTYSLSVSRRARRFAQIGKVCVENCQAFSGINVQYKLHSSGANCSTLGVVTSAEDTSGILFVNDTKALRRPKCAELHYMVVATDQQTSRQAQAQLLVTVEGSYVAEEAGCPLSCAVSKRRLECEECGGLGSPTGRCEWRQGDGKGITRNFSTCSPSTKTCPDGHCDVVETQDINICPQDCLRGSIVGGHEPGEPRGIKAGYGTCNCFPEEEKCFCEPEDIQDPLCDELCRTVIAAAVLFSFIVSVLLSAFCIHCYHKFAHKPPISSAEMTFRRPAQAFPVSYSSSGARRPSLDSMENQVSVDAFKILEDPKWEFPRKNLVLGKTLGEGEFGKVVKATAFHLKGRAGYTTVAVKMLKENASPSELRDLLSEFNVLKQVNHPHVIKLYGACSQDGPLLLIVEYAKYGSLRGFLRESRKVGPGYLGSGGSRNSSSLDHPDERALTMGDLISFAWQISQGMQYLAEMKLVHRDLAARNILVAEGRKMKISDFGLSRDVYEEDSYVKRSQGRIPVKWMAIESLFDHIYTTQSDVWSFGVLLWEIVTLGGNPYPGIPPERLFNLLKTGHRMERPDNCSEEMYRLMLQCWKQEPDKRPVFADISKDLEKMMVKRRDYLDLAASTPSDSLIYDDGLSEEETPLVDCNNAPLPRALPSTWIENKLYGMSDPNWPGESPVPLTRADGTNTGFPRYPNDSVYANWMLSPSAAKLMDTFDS
Serine/threonine-protein kinase 4 (Homo sapiens), sequence (Q13043 whole entry): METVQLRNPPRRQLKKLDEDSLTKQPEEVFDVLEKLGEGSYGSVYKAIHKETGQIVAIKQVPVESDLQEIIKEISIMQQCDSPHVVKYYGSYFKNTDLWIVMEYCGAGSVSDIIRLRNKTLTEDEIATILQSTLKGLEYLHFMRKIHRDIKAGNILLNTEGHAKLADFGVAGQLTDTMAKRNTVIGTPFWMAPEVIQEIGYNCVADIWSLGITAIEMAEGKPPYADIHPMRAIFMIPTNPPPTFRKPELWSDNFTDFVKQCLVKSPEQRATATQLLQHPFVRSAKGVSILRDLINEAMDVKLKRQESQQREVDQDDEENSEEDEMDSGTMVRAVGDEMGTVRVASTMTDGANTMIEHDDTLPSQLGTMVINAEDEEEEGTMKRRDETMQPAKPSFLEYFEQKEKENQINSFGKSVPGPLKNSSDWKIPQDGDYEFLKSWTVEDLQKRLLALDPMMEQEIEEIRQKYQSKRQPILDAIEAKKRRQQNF
Ephrin type-A receptor 2 (Homo sapiens), sequence (P29317 whole entry): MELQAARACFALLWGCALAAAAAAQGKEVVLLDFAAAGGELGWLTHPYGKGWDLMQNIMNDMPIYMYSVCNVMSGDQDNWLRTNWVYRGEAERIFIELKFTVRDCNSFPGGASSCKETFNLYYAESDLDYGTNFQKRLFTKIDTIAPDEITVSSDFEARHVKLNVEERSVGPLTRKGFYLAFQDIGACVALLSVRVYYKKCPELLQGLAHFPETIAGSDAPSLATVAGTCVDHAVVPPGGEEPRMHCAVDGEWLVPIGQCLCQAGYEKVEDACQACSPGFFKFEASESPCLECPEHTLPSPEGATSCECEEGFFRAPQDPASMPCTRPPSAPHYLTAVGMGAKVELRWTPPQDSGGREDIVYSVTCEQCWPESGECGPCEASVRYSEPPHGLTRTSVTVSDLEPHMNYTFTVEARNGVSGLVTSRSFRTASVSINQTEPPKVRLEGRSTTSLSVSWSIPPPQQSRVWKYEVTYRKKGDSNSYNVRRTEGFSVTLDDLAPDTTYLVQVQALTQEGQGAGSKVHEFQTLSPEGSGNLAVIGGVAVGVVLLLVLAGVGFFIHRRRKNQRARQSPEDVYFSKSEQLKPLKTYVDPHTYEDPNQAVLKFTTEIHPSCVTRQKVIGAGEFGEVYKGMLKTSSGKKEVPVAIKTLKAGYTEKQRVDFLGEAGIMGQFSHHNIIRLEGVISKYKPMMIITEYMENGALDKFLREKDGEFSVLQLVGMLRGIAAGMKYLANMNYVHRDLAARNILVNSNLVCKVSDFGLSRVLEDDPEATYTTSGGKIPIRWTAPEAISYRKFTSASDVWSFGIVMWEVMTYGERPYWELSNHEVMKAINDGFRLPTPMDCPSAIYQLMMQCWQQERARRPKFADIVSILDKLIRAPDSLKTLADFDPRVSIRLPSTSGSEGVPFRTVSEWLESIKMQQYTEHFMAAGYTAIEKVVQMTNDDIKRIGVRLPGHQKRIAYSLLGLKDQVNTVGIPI
Proto-oncogene tyrosine-protein kinase receptor Ret (Homo sapiens), P07949 [Y791F], sequence (P07949 whole entry Y791F): as the sequence (P07949 whole entry) above, with Y791F counted along it

- inhibition [1]: 40%
- inhibition [2]: 28%
- inhibition [3]: -7.3%
- inhibition [4]: 19.7%
- inhibition [5]: 63.3%
- inhibition [6]: 2.3%
- inhibition [7]: -1%
- inhibition [8]: -3.3%
- inhibition [9]: 4.7%
- inhibition [10]: -5.7%
SMILES: Cc1[nH]nc(C2CC2)c1-c1ccc2c(-c3ccc(N4CCN(C)CC4)nc3)n[nH]c2c1

- inhibition [11]: 3%
- inhibition [12]: -9.3%
- inhibition [13]: 5.7%
- inhibition [14]: 2.7%
- inhibition [15]: -4.3%
- Tmax [16]: 40.2 min
- inhibition [17]: 3.3%
- inhibition [18]: 3%
- inhibition [19]: -0.3%
- inhibition [20]: 0%
- inhibition [21]: 8.3%
- inhibition [22]: -2.3%
- inhibition [23]: 0.3%
- inhibition [24]: 1.7%
- inhibition [25]: -5.7%
- inhibition [26]: 2.7%
- inhibition [27]: 7.3%
- remaining at 0.5 h, 1 µM [28]: 84%
- inhibition [29]: 6%
SMILES: COC(=O)Nc1cc(-c2c(C3CC3)n[nH]c2C)cc2[nH]ncc12
